Data on eight compounds can be found in US4418064A, “Chemotherapeutically active maytansinoids: treflorine, trenudine, and N-methyltrenudone” (priority 1982, dated 1983).

≈ marks a conversion by molar mass, not a printed value. Bounds are passed on as bounds.

Data set [1] relates to lymphocytic leukemia P388. To be noted: cited from earlier work; for activity against lymphocytic leukemia P388: at the microgram per kilogram level, Wani et al.; for dosage level at which activity in the PS system was demonstrated: U.S. Pat. No. 4,313,946.
Data set [2] has as its system lymphocytic leukemia P388. Nature of the data set: PS system, lymphocytic leukemia P388 in mice, NCI Protocol 1.200, survival. It counts as in vivo. To be noted: i.p. once a day for 9 days. Here is the method: Another indication of fraction activity is the effectiveness in the PS system against lymphocytic leukemia P388 in mice. These assays are conducted according to the NCI Protocol 1.200 described in Geran et al., supra. Starting 24 hours after the tumor implantation, previously determined doses of each compound were injected intraperitoneally once a day for 9 days. Survival time of treated leukemic mice is compared to that of untreated mice (T/C×100). A T/C value of 100% indicates no activity. A T/C value greater than 100% means that the treated mice are surviving longer than the control mice. A compound giving a T/C value greater than 125% is indicative of activity as defined by the NCI Protocols, above.

The subject of another data set is European corn borer. The settings on record: U.S. Pat. No. 4,315,929; cited from earlier work.
Another data set relates to B16 melanocarcinoma. Put plainly: B1 system, B16 melanocarcinoma in mice, NCI Protocol 1.300. It counts as in vivo. The settings on record: i.p. once a day for 9 days, host sex M. Here is the method: The compounds were also evaluated in the B1 system against B16 melanocarcinoma in mice. This assay is conducted in accordance with the NCI Protocol 1.300 described in Geran et al., supra. Starting 24 hours after the tumor implantation, predetermined doses of the compound were injected intraperitoneally once a day for 9 days. The results are reported in Table VI below as the percent T/C.

The test system of data set [3] is human epidermoid carcinoma of the mouth (KB). Put plainly: cells. The settings on record: for IC50: Homo sapiens, KB, 72 h, read-out: ED50; for KB cytotoxicity compared with that reported for maytansine, maytanbutine and others: compared with Kupchan, J. Med. Chem. 21, Table II. Here is the method: The KB Cell Culture Screen used in guiding the above-described fractionations was conducted in accordance with the National Cancer Institute (NCI) Protocol 1.600 [Geran et al., Cancer Chemother. Rep., Part 3, 3: 17 (1972)] in which the effectiveness of the test compounds against cultivated cells of human epidermoid carcinoma of the mouth was evaluated. […] Such a dose is referred to as ED50 and activity is indicated for ED50 levels of ≤30 μg./ml. The smaller the ED50 level, the more cytotoxic the test material.

The subject of a further data set is leukemia. The settings on record: Kupchan et al., J. Org. Chem. 42; cited from earlier work.
Setting [4] is: 4.00 μg./kg./inj., distilled water + alcohol.
Where [5] appears, read: 8.00 μg./kg./inj., distilled water + alcohol.
[6] abbreviates: 16.00 μg./kg./inj., distilled water + alcohol.
The mark [7] stands for this setting: 32.00 μg./kg./inj., distilled water + alcohol.
Where [8] appears, read: 4.00 μg./kg./inj., distilled water + alcohol, host sex M.
Where [9] appears, read: 8.00 μg./kg./inj., distilled water + alcohol, host sex M.
[10] abbreviates: 16.00 μg./kg./inj., distilled water + alcohol, host sex M.
Setting [11] is: 32.00 μg./kg./inj., distilled water + alcohol, host sex M.

For the compound `COc1cc2cc(c1Cl)N(C)C(=O)C[C@H](OC(=O)[C@H](C)N(C)C(=O)C(C)C)[C@]1(C)O[C@H]1[C@H](C)[C@@H]1C[C@@](O)(NC(=O)O1)[C@H](OC)/C=C/C=C(\C)C2O` (some centres unmarked) [colubrinol], the “activity against lymphocytic leukemia P388” value in data set [1] is given as “demonstrated activity”.
For the compound `COc1cc2cc(c1Cl)N(C)C(=O)C[C@H](OC(=O)[C@H](C)N(C)C(=O)C(C)C)[C@]1(C)O[C@H]1[C@H](C)[C@@H]1C[C@@](O)(NC(=O)O1)[C@H](OC)/C=C/C=C(\C)C2OC(C)=O` (some centres unmarked) [colubrinol acetate], in data set [1], the “activity against lymphocytic leukemia P388” value is reported as “demonstrated activity”.
For `COc1cc2cc(c1Cl)N(C)C(=O)C[C@H](OC(=O)[C@H](C)N(C)C(=O)C(C)C)[C@]1(C)O[C@H]1[C@H](C)[C@@H]1C[C@@](O)(NC(=O)O1)[C@H](OC)/C=C/C=C(\C)C2OC` (some centres unmarked) [trewiasine, reference compound], the “T/C (%)” value was determined as 163% in data set [2] (4.00 μg./kg./inj., vehicle Klucel, host sex F); 140% in data set [2] (8.00 μg./kg./inj., vehicle Klucel, host sex F); 154% in data set [2] (16.00 μg./kg./inj., vehicle Klucel, host sex F); 128% in data set [2] (32.00 μg./kg./inj., vehicle Klucel, host sex F); 91% in data set [2] (64.00 μg./kg./inj., vehicle Klucel, host sex F); 133% with B16 melanocarcinoma (1.00 μg./kg./inj., vehicle Klucel). Besides, the “T/C (%)” value was found to be 140% with B16 melanocarcinoma (2.00 μg./kg./inj., vehicle Klucel); 157% in the data set with B16 melanocarcinoma (4.00 μg./kg./inj., vehicle Klucel); 185% in the data set with B16 melanocarcinoma (8.00 μg./kg./inj., vehicle Klucel); 172% with B16 melanocarcinoma (16.00 μg./kg./inj., vehicle Klucel); 183% in the data set with B16 melanocarcinoma (32.00 μg./kg./inj., vehicle Klucel). Moreover, in the data set with European corn borer, the “control of the European corn borer” value is “effective in controlling the European corn borer”. Besides, the “dosage level at which activity in the PS system was demonstrated” value in data set [1] was 4 µg/kg. The compound further returned an ED50 in data set [3] (dose that inhibits growth to 50% of control, 3 days after drug addition) of 0.2 ng/mL (≈ 0.267 nM).
For `C=C(C)C(=O)N(C)[C@@H](C)C(=O)O[C@H]1CC(=O)N(C)c2cc(cc(OC)c2Cl)C(OC)/C(C)=C/C=C/[C@@H](OC)[C@@]2(O)C[C@H](OC(=O)N2)[C@@H](C)[C@@H]2O[C@@]12C` (some centres unmarked) [dehydrotrewiasine], in data set [1], the “dosage level at which activity in the PS system was demonstrated” value is 4 µg/kg.
On to `COc1cc2cc(c1Cl)N1CC(O)C(C)(O)C(=O)NC(C)C(=O)O[C@@H](CC1=O)[C@]1(C)O[C@H]1[C@H](C)[C@@H]1C[C@@](O)(NC(=O)O1)[C@H](OC)/C=C/C=C(\C)C2OC` (some centres unmarked) [trenudine], for which the “T/C (%)” value in data set [2] (2.00 μg./kg./inj., distilled water + alcohol, host sex F) is 144%; in data set [2] (4.00 μg./kg./inj., distilled water + alcohol, host sex F) it was 137%; in data set [2] (8.00 μg./kg./inj., distilled water + alcohol, host sex F), 146%; in data set [2] (16.00 μg./kg./inj., distilled water + alcohol, host sex F) it was 137%; in data set [2] (32.00 μg./kg./inj., distilled water + alcohol, host sex F) it was “toxic”; in the data set on B16 melanocarcinoma (1.00 μg./kg./inj., distilled water + alcohol), 137%. Further, the “T/C (%)” value in the data set on B16 melanocarcinoma (2.00 μg./kg./inj., distilled water + alcohol) is reported as 147%; in the data set with B16 melanocarcinoma (setting [4]) it was 145%; in the data set with B16 melanocarcinoma (setting [5]), 176%; in the data set on B16 melanocarcinoma (setting [6]), 197%; in the data set with B16 melanocarcinoma (setting [7]) it was “toxic”. Moreover, the IC50 in data set [3] came out at 0.64 ng/mL (≈ 0.835 nM). Further, in data set [3], the “KB cytotoxicity compared with that reported for maytansine, maytanbutine and others” value is “at least one order of magitude less”.
On to `COc1cc2cc(c1Cl)N1CCC(C)(O)C(=O)NC(C)C(=O)O[C@@H](CC1=O)[C@]1(C)O[C@H]1[C@H](C)[C@@H]1C[C@@](O)(NC(=O)O1)[C@H](OC)/C=C/C=C(\C)C2OC` (some centres unmarked) [treflorine], for which the “T/C (%)” value worked out at 150% in data set [2] (setting [8]); 144% in data set [2] (setting [9]); 157% in data set [2] (setting [10]); 150% in data set [2] (setting [11]); 130% in the data set with B16 melanocarcinoma (setting [4]); 160% in the data set with B16 melanocarcinoma (setting [5]). Moreover, the “T/C (%)” value in the data set on B16 melanocarcinoma (setting [6]) is 162%; with B16 melanocarcinoma (setting [7]), 178%. In addition, in data set [3], the IC50 was 0.27 ng/mL (≈ 0.36 nM). Besides, the “KB cytotoxicity compared with that reported for maytansine, maytanbutine and others” value in data set [3] was “at least one order of magitude less”.
`COc1cc2cc(c1Cl)N1CC(=O)C(C)(O)C(=O)N(C)C(C)C(=O)O[C@@H](CC1=O)[C@]1(C)O[C@H]1[C@H](C)[C@@H]1C[C@@](O)(NC(=O)O1)[C@H](OC)/C=C/C=C(\C)C2OC` (some centres unmarked) [N-methyltrenudone]: the “T/C (%)” value in data set [2] (setting [8]) is 153%; in data set [2] (setting [9]), 108%; in data set [2] (setting [10]), “toxic”; in data set [2] (setting [11]), “toxic”; with B16 melanocarcinoma (setting [4]) it was 109%; in the data set on B16 melanocarcinoma (setting [5]), 93%. Besides, the “T/C (%)” value with B16 melanocarcinoma (setting [6]) is recorded as 111%; in the data set with B16 melanocarcinoma (setting [7]) it was 95%. In addition, in data set [3], the IC50 was < 10 ng/mL.
Regarding `COc1cc2cc(c1Cl)N(C)C(=O)C[C@H](OC(=O)C(C)C)[C@]1(C)O[C@H]1[C@H](C)[C@@H]1C[C@@](O)(NC(=O)O1)[C@H](OC)/C=C/C=C(\C)C2OC(C)=O` (some centres unmarked) [maytanbutacine], in the data set with leukemia, the antileukemic activity result is recorded as “antileukemic principle”.
